Results from the NIST ThermoML archive (doi:10.1021/je100693c).

How the values were obtained:
[1] = xn = mol fraction of the nth substance listed; details: 101 kPa, Liquid, Vibrating tube method
[2] = excess molar enthalpy (molar enthalpy of mixing); xn = mol fraction of the nth substance listed; details: 101 kPa, Liquid

OCC(F)(F)F [2,2,2-trifluoroethanol] + CCCCn1cc[n+](C)c1.F[B-](F)(F)F
Details	excess molar enthalpy [kcal/mol]	mass density [kg/m3]
[1], 283.15 K, x2 = 0	–	1408.2
[1], 283.15 K, x2 = 0.1032	–	1360.8
[1], 283.15 K, x2 = 0.2129	–	1322.2
[1], 283.15 K, x2 = 0.299	–	1299.8
[1], 283.15 K, x2 = 0.4022	–	1279.1
[1], 283.15 K, x2 = 0.5028	–	1262.9
[1], 283.15 K, x2 = 0.5808	–	1252.3
[1], 283.15 K, x2 = 0.6912	–	1239.6
[1], 283.15 K, x2 = 0.8062	–	1228.5
[1], 283.15 K, x2 = 0.8945	–	1221.2
[1], 293.15 K, x2 = 0	–	1391.1
[1], 293.15 K, x2 = 0.1032	–	1346.9
[1], 293.15 K, x2 = 0.2129	–	1310.1
[1], 293.15 K, x2 = 0.299	–	1288.8
[1], 293.15 K, x2 = 0.4022	–	1269
[1], 293.15 K, x2 = 0.5028	–	1253.4
[1], 293.15 K, x2 = 0.5808	–	1243.3
[1], 293.15 K, x2 = 0.6912	–	1231.2
[1], 293.15 K, x2 = 0.8062	–	1220.5
[1], 293.15 K, x2 = 0.8945	–	1213.3
[1], 303.15 K, x2 = 0	–	1373.8
[1], 303.15 K, x2 = 0.1032	–	1332.9
[1], 303.15 K, x2 = 0.2129	–	1298.1
[1], 303.15 K, x2 = 0.299	–	1277.9
[1], 303.15 K, x2 = 0.4022	–	1259.1
[1], 303.15 K, x2 = 0.5028	–	1244.3
[1], 303.15 K, x2 = 0.5808	–	1234.6
[1], 303.15 K, x2 = 0.6912	–	1223.1
[1], 303.15 K, x2 = 0.8062	–	1212.8
[1], 303.15 K, x2 = 0.8945	–	1205.8
[1], 313.15 K, x2 = 0	–	1356.1
[1], 313.15 K, x2 = 0.1032	–	1319
[1], 313.15 K, x2 = 0.2129	–	1286.1
[1], 313.15 K, x2 = 0.299	–	1267
[1], 313.15 K, x2 = 0.4022	–	1249.4
[1], 313.15 K, x2 = 0.5028	–	1235.2
[1], 313.15 K, x2 = 0.5808	–	1226
[1], 313.15 K, x2 = 0.6912	–	1215
[1], 313.15 K, x2 = 0.8062	–	1205.1
[1], 313.15 K, x2 = 0.8945	–	1198.3
[1], 323.15 K, x2 = 0	–	1338
[1], 323.15 K, x2 = 0.1032	–	1304.9
[1], 323.15 K, x2 = 0.2129	–	1274.3
[1], 323.15 K, x2 = 0.299	–	1256.4
[1], 323.15 K, x2 = 0.4022	–	1239.7
[1], 323.15 K, x2 = 0.5028	–	1226.4
[1], 323.15 K, x2 = 0.5808	–	1217.5
[1], 323.15 K, x2 = 0.6912	–	1207
[1], 323.15 K, x2 = 0.8062	–	1197.6
[1], 323.15 K, x2 = 0.8945	–	1190.9
[1], 333.15 K, x2 = 0	–	1319.1
[1], 333.15 K, x2 = 0.1032	–	1290.6
[1], 333.15 K, x2 = 0.2129	–	1262.4
[1], 333.15 K, x2 = 0.299	–	1245.8
[1], 333.15 K, x2 = 0.4022	–	1230
[1], 333.15 K, x2 = 0.5028	–	1217.4
[1], 333.15 K, x2 = 0.5808	–	1209
[1], 333.15 K, x2 = 0.6912	–	1199.1
[1], 333.15 K, x2 = 0.8062	–	1190.1
[1], 333.15 K, x2 = 0.8945	–	1183.6
[2], 298.15 K, x2 = 0.0878	0.174	–
[2], 298.15 K, x2 = 0.1614	0.279	–
[2], 298.15 K, x2 = 0.2042	0.305	–
[2], 298.15 K, x2 = 0.2779	0.318	–
[2], 298.15 K, x2 = 0.3392	0.302	–
[2], 298.15 K, x2 = 0.3908	0.289	–
[2], 298.15 K, x2 = 0.435	0.273	–
[2], 298.15 K, x2 = 0.5065	0.238	–
[2], 298.15 K, x2 = 0.6581	0.162	–
[2], 298.15 K, x2 = 0.6919	0.145	–
[2], 298.15 K, x2 = 0.7549	0.119	–
[2], 298.15 K, x2 = 0.8089	0.0909	–
[2], 298.15 K, x2 = 0.9059	0.0403	–
[2], 323.15 K, x2 = 0.0459	0.0433	–
[2], 323.15 K, x2 = 0.1137	0.113	–
[2], 323.15 K, x2 = 0.2042	0.168	–
[2], 323.15 K, x2 = 0.2779	0.179	–
[2], 323.15 K, x2 = 0.3461	0.173	–
[2], 323.15 K, x2 = 0.435	0.154	–
[2], 323.15 K, x2 = 0.5359	0.128	–
[2], 323.15 K, x2 = 0.6062	0.108	–
[2], 323.15 K, x2 = 0.6978	0.079	–
[2], 323.15 K, x2 = 0.822	0.0433	–
[2], 323.15 K, x2 = 0.885	0.0286	–
